Results taken from paper PMC3400037, “Application of a single-objective, hybrid genetic algorithm approach to pharmacokinetic model building” (Journal of Pharmacokinetics and Pharmacodynamics, 2012).
Read-outs that look alike come from different tables or passages of the source. One block for each molecule: values may come before it.

Key:
[1] = human, in vivo
Text: (§1) Individuals who received oral olanzapine [14], perphaenazine [15], risperidone [16], or ziprasidone [17] were patients treated between January 2001 and December 2004 as part of the Clinical Antipsychotic Trials of Intervention Effectiveness (CATIE)—a multisite, US study of randomized, double-blind, medication comparative-effectiveness trial—in the treatment of Alzheimer’s (CATIE-AD) and schizophrenia (CATIE-SZ). […] Individuals who received intravenous citalopram were part of a cross sectional study of healthy volunteers participating in Pittsburgh’s Adult and Human Behavior Project; these individuals were between the ages of 30 and 55 years and not taking medications for hypertension, lipid disorders, or diabetes [22]. Individuals who received intravenous DMAG were cancer patients either at Pittsburgh’s Cancer Institute or at Memorial Sloan-Kettering participating in a phase II study.
(§2) The SOHGA operates on a set of candidate models in which each candidate specifies covariates included the in model, their functional forms, the structure of the inter-individual and residual variability, and the initial pharmacokinetic model parameter estimates [3]. Special-use software in which the SOHGA, coded and run in Microsoft Visual Studio and Compaq Digital Fortran, creates NONMEM control files to fit parameters and calculate the fitness of candidate models using NONMEM VI, Level 1.0 or NONMEM VII, version 7.2 using either first-order (risperidone only) or first-order conditional estimation with interaction using Xpose [23].
(§3) The SOHGA retained a population of 200–400 candidate models for 30–50 generations. A total of 0.7 crossover events were expected per set of parents. Candidate models for crossover were randomly selected based on scaled fitness function values; linear regression was performed using all fitness functions within two standard deviations of the mean, the fitness of the regression values were scaled to between 0.2 and 4, and outlying values were assigned one of these extreme values. This scaling of the fitness function improves convergence by not permitting outliers to dominate the selection process. The mutation rate was 0.01 mutations per bit. The candidate model with best fitness function was retained to the next generation, a technique known as elitism. Niche evaluation (where a niches differ by <4 bits) was performed. In niche evaluation, a penalty is applied to models that are similar to other models (differ by 4 or fewer bits). This prevents early convergence, maintaining diversity in the population. Four niches were used, insuring that at least four regions of the search space were explored in each phase of the search. A simple downhill search was performed every five generations. In the downhill search, each bit of the best model in each niche in reversed (0 to 1, 1 to 0) and the resulting models run. For example, if the bit string if of length 40, the downhill search will generate 40 new models for each niche that each differ by a single bit. If any of the resulting models are better than the current best model for that niche, the process is repeated with that model, until no further improvement is seen. Finally, timeout conditions were set where NONMEM timed out (terminated without completion failing convergence) after up to 600 min for a model and a generation timed out after up to 6,000 min although the exact timeout conditions varied by compound.

[2] = Population pharmacokinetic model of clinical plasma concentration data, single-objective hybrid genetic algorithm (SOHGA) coupled to NONMEM; conditions: best SOHGA candidate model
Text: as §1, §2, §3

[3] = final stepwise model, oral, cited from earlier work; for Absorption rate constant (1/h)—TVKA: fixed based on literature, not estimated; for Clearance (L/h)—TVCL / Volume of distribution (L)—TVV: one compartment with absorption; for Volume of distribution (L)—TVV: (relative standard error; perphenazine: 95 % CI from bootstrapping)
[4] = Population pharmacokinetic model of clinical plasma concentration data, manual stepwise forward inclusion/backward elimination (NONMEM); format: in vivo, human; conditions: final stepwise model, IV
Experimental: Manual stepwise model results were taken from the literature or were generated from unpublished data (DMAG) or data reported elsewhere in the literature. These models were determined using similar methods. Briefly, for each compound, a covariate free model was used to select the model compartment structure with the combination of inter-individual and residual variability structures resulting in the lowest objective function value calculated by NONMEM (twice the negative log likelihood plus a fixed constant offset) and a reasonable distribution of residuals as the base model.
Univariate evaluations of covariates were then performed. […] The covariate and its function form that (1) yielded the lowest objective function conditional on (2) improved the objective function value by at least 3.84 (citalopram, DMAG, and [14, 15, 17, 21]) or 7.88 [16] points compared to the base model (which corresponds to Chi-squared values of p = 0.05 and p = 0.005 with one degree of freedom, respectively) and (3) in which there appeared to be a graphical relationship between the deviation in an individual predicted value and the covariate value across individual predicted values was included in the model. The remaining covariates were then included individually in the updated model, the inclusion criteria evaluated, and the model sequentially updated with additional covariates until no further covariates met the model inclusion criteria.
Finally, individual covariates were removed from the final model and the change in the objective function was calculated. Covariates were excluded from the final model if, when the covariate was removed, the objective function value increased by less than 3.84 (citalopram, DMAG, [14, 15, 21]), 6.63 [17] (a Chi-squared value of p = 0.01 with one degree of freedom), or 7.88 [16]. Although the models were derived using different versions of NONMEM, the final models reported in the literature were re-run in NONMEM VI, Level 1.0 using Fortran G77 and NONMEM VII, version 7.2 with Intel Fortran to confirm that the results were independent of the NONMEM version.
All continuous covariates were centered at zero.

[5] = clinical; conditions: human, in vivo, iv
Text: as §1, §2, §3

[6] = oral, one compartment with absorption, (relative standard error)
[7] = 3 component mixture for clearance, FO, (relative standard error)
[8] = 3 component mixture for clearance
[9] = three compartment, (relative standard error)
[10] = IV, three compartment, (relative standard error)
[11] = CYP2C19 genotype, (relative standard error)

Absorption rate constant (1/h)—TVKA ([1]; po): 0.424 (5.8 %) 1/h | Inter-individual variability—ωCL of ηCL ([1]; po): 69.0 % (21.4 %) | Inter-individual variability—ωV of ηV ([1]; po): 114 % (16.0 %) | Clearance (L/h)—TVCL [2, 6]: 126 (9.0 %) L/h | Volume of distribution (L)—TVV [2, 6]: 1,030 (12.4 %) L
SMILES: O=C1Cc2cc(CCN3CCN(c4nsc5ccccc45)CC3)c(Cl)cc2N1 [Ziprasidone, ziprasidone]
Inter-individual variability—ωCL of ηCL [3]: 64.8 % (25 %) | Inter-individual variability—ωV of ηV [3]: 104.4 % (27 %) | Absorption rate constant (1/h)—TVKA [3]: Fixed at 0.5 1/h | Clearance (L/h)—TVCL ([3]; (relative standard error)): 122 (9 %) L/h | Volume of distribution (L)—TVV [3]: 1,060 (19 %) L

Absorption rate constant (1/h)—TVKA ([1]; po): 0.859 (80.7 %) 1/h | Clearance (L/h)—TVCL ([1]; po): 354 (12.3 %) L/h | Inter-individual variability—ωCL of ηCL ([1]; po): 78.8 % (11.4 %) | Volume of distribution (L)—TVV ([1]; po): 1.10x10^7 (172 %) L
SMILES: OCCN1CCN(CCCN2c3ccccc3Sc3ccc(Cl)cc32)CC1 [Perphenazine, perphenazine]
Clearance (L/h)—TVCL ([3]; (relative standard error)): 483 L/h | Volume of distribution (L)—TVV [3]: 18,200 (13,865 - 65,795) L

Second part, the molecule before the results:

SMILES: Cc1nc2n(c(=O)c1CCN1CCC(c3noc4cc(F)ccc34)CC1)CCCC2 [Risperidone, risperidone]
Absorption rate constant (1/h)—TVKA ([1]; po): 0.184.(21.1 %) 1/h | Central volume—TVV1 ([1]; po): 96.6 (31.2 %) | Clearance (L/h)—TVCL, Extensive metabolizer ([1]; po): 122 (11.5 %) L/h | Clearance (L/h)—TVCL, Intermediate metabolizer ([1]; po): 34.9 (8.9 %) L/h | Clearance (L/h)—TVCL, Poor metabolizer ([1]; po): 12.4 (8.5 %) L/h | Inter-comp clearance—TVQ ([1]; po): 27.1 (29.9 %) | Inter-individual variability—η^(V1) ([1]; po): 478 % (46.4 %) | Inter-individual variability—ωCL of ηCL ([1]; po): 7.3 % (32.2 %) | Percent of subjects who were extensive metabolizers ([1]; po): 41.4 % (8.6 %) | Percent of subjects who were poor metabolizers ([1]; po): 22.4 % (4.4 %) | Peripheral volume—TVV2 ([1]; po): 1.31x10^10 (1,000 %) | Clearance (L/h)—TVCL, Extensive metabolizer [3, 7]: 65.4 (9.9 %) L/h | Clearance (L/h)—TVCL, Poor metabolizer [3, 7]: 12.9 (6.5 %) L/h | Inter-individual variability—ωCL of ηCL, Extensive metabolizer [3, 8]: 56.6 % (16.8 %) | Inter-individual variability—ωCL of ηCL, Poor metabolizer [3, 8]: 95.9 % (39.5 %) | Percent of subjects who were extensive metabolizers [3, 8]: 52.4 % (6.2 %) | Percent of subjects who were poor metabolizers [3, 8]: 41.2 % (8.1 %) | Inter-individual variability—ωKA of ηKA [3]: 53.7 % (89.3 %) | Inter-individual variability—ωV of ηV [3]: 36.1 % (24.4 %) | Absorption rate constant (1/h)—TVKA [3]: Fixed at 1.7 1/h | Volume of distribution (L)—TVV [3]: 444 (17.8 %) L

SMILES: Cc1cc2c(s1)Nc1ccccc1N=C2N1CCN(C)CC1 [Olanzapine, olanzapine]
Absorption rate constant (1/h)—TVKA ([1]; po): 0.773 (70.4 %) 1/h | Clearance (L/h)—TVCL ([1]; po): 21.1 (15.5 %) L/h | Inter-individual variability—ωCL of ηCL ([1]; po): 64.7 % (17.2 %) | Volume of distribution (L)—TVV ([1]; po): 4,130 (48.9 %) L | Inter-individual variability—ωCL of ηCL [3]: 68% | Inter-individual variability—ωV of ηV [3]: 86% | Absorption rate constant (1/h)—TVKA [3]: Fixed at 0.5 1/h | Clearance (L/h)—TVCL ([3]; (relative standard error)): 16.1 (7.3 %) L/h | Volume of distribution (L)—TVV [3]: 2,150 (26.0 %) L

SMILES: CO[C@H]1/C=C\C=C(/C)C(=O)NC2=CC(=O)C(NCCN(C)C)=C(C[C@@H](C)C[C@H](OC)[C@H](O)[C@@H](C)/C=C(\C)[C@@H]1OC(N)=O)C2=O [DMAG, 17-(dimethylaminoethylamio)-17-demethoxygeldanamycin]
Inter-occasion variability (first compartment volume) [4]: 59.7 % (31.2 %) | Inter-occasion variability—ωQ1 of ηOCC,Q1 [4]: 32.6 % (37.2 %) | Inter-patient variability—ωQ2 of ηQ2 [4]: 75.8 % (32.0 %) | Inter-patient variability—ωV3 of ηV3 [4]: 67.5 % (37.3 %) | Inter-individual variability—ωV1 of ηV1 ([4]; standard deviation ω): 33.0 % (111.9 %) | Inter-individual variability—ωV2 of ηV2 ([4]; standard deviation ω): 50.7 % (23.7 %) | Inter-patient variability—ωCL of ηCL ([4]; standard deviation ω): 53.8 % (22.9 %) | First compartment volume (L)—TVV1 [4, 9]: 27.4 (11.7 %) L | Second compartment volume (L)—TVV2 [4, 9]: 66.4 (10.1 %) L | Third compartment volume (L)—TVV3 [4, 9]: 142 (13.5 %) L | Clearance (L/h)—TVCL ([4]; typical value (relative standard error)): 8.4 (11.2 %) L/h | Inter-individual variability—ωV1 of ηV1 ([2]; IV): 39.7 % (24.5 %) | Inter-individual variability—ωV2 of ηV2 ([2]; IV): 42.3 % (24.8 %) | Inter-occasion variability—ωCL of ηOCC,CL ([2]; IV): 8.3 % (38.6 %) | Inter-occasion variability—ωQ1 of ηOCC,Q1 ([2]; IV): 14.0 % (32.7 %) | Inter-patient variability—ωCL of ηCL ([2]; IV): 22.1 % (29.1 %) | First compartment volume (L)—TVV1 [2, 10]: 28.1 (12.9 %) L | Second compartment volume (L)—TVV2 [2, 10]: 77.9 (11.4 %) L | Third compartment volume (L)—TVV3 [2, 10]: 86.4 (8.5 %) L | Clearance (L/h)—TVCL ([2]; IV, typical value (relative standard error)): 9.28 (7.9 %) L/h

SMILES: CN(C)CCCC1(c2ccc(F)cc2)OCc2cc(C#N)ccc21 (stereo not shown) [Citalopram, citalopram]
clearance [5]: 20.3 mL/min | Inter-individual variability—ωQ of ηQ ([4]; standard deviation ω): 48.5 % (NA) | Inter-individual variability—ωV1 of ηV1 ([4]; standard deviation ω): 12.2 % (NA) | Inter-individual variability—ωV2 of ηV2 ([4]; standard deviation ω): 22.6 % (NA) | Central volume (L)—TVV1 ([4]; two compartment): 2.87 (NA) L | Peripheral volume (L)—TVV2 ([4]; two compartment): 1,510 (NA) L | clearance ([4]; human, plasma, 0.33 mg/kg lean body mass, typical value (relative standard error), read-out: Clearance (L/h)—TVCL (converted)): 7.11 L/h | Central volume (L)—TVV1 ([1]; iv): 82.1 (17.7 %) L | Inter-comp clearance (L/h)—TVQ ([1]; iv): 6.26 (19.0 %) L/h | Inter-individual variability—ωQ of ηQ ([1]; iv): 35.5 % (19.0 %) | Inter-individual variability—ωV1 of ηV1 ([1]; iv): 46.2 % (15.5 %) | Inter-individual variability—ωV2 of ηV2 ([1]; iv): 25.4 % (12.5 %) | Peripheral volume (L)—TVV2 ([1]; iv): 205 (12.6 %) L

SMILES: CN(C)CCC[C@@]1(c2ccc(F)cc2)OCc2cc(C#N)ccc21 [Escitalopram, escitalopram]
Absorption rate constant (1/h)—TVKA ([1]; po): 0.594 (23.1 %) 1/h | Clearance (L/h)—TVCL ([1]; po): 25.5 (5.3 %) L/h | Inter-individual variability—ωV of ηV ([1]; po): 59.4 % (32.6 %) | Volume of distribution (L)—TVV ([1]; po): 874 (11.8 %) L | Clearance (L/h)—TVCL, Missing metabolizer information ([3]; (relative standard error)): 21.5 (7.80 %) L/h | Clearance (L/h)—TVCL, Extensive metabolizer [3, 11]: 26 (7.20 %) L/h | Clearance (L/h)—TVCL, Poor metabolizer [3, 11]: 19.8 (8.50 %) L/h | Inter-individual variability—ωV of ηV [3]: 62.0 % (40.3 %) | Volume of distribution (L)—TVV [3]: 947 (10.2 %) L
